Results taken from ChEMBL document CHEMBL1649303, “Effects of subinhibitory concentrations of antibiotics on colonization factor expression by moxifloxacin-susceptible and moxifloxacin-resistant Clostridium difficile strains” (2009).
≈ marks a conversion by molar mass, not a printed value.

Tests used:
Format in all cases: functional
Clostridioides difficile [1] = test: Antimicrobial activity against Clostridium difficile 6269 by broth dilution method
Clostridioides difficile [2] = test: Antimicrobial activity against Clostridium difficile CD07-259 by broth dilution method
Clostridioides difficile [3] = test: Antimicrobial activity against Clostridium difficile ATCC 43603 by broth dilution method
Clostridioides difficile [4] = test: Antimicrobial activity against Clostridium difficile CD196 by broth dilution method
Clostridioides difficile [5] = test: Antimicrobial activity against Clostridium difficile 6425 by broth dilution method
Clostridioides difficile [6] = test: Induction of Cwp84 protease expression in Clostridium difficile 6425 at 0.5 times MIC by immunoblot analysis
Clostridioides difficile [7] = test: Upregulation of slpA gene expression in Clostridium difficile ATCC 43603-M1 at 0.5 times MIC by real-time PCR analysis relative to control
[8] = Antimicrobial activity against Clostridium difficile CD196 M1 by broth dilution method; conditions: Clostridioides difficile
Clostridioides difficile [9] = test: Upregulation of cwp84 gene expression in Clostridium difficile ATCC 43603-M1 at 0.5 times MIC by real-time PCR analysis relative to control
Clostridioides difficile [10] = test: Antimicrobial activity against Clostridium difficile ATCC 43603-M1 by broth dilution method
Clostridioides difficile [11] = test: Upregulation of slpA gene expression in Clostridium difficile CD07-259 at 0.5 times MIC by real-time PCR analysis relative to control
Clostridioides difficile [12] = test: Upregulation of fbp68 gene expression in Clostridium difficile ATCC 43603-M1 at 0.5 times MIC by real-time PCR analysis relative to control
Clostridioides difficile [13] = test: Upregulation of cwp84 gene expression in Clostridium difficile ATCC 43603 at 0.5 times MIC by real-time PCR analysis relative to control
Clostridioides difficile [14] = test: Upregulation of slpA gene expression in Clostridium difficile 6425 at 0.5 times MIC by real-time PCR analysis relative to control
Clostridioides difficile [15] = test: Induction of Cwp84 protease expression in Clostridium difficile ATCC 43603-M1 at 0.5 times MIC by immunoblot analysis
Clostridioides difficile [16] = test: Upregulation of slpA gene expression in Clostridium difficile ATCC 43603 at 0.5 times MIC by real-time PCR analysis relative to control
Clostridioides difficile [17] = test: Upregulation of fbp68 gene expression in Clostridium difficile ATCC 43603 at 0.5 times MIC by real-time PCR analysis relative to control

Row | SMILES | MIC (Clostridioides difficile [1]) | MIC (Clostridioides difficile [2]) | MIC (Clostridioides difficile [3]) | MIC (Clostridioides difficile [4]) | MIC (Clostridioides difficile [5]) | Activity (Clostridioides difficile [6]) | fold change (FC) (Clostridioides difficile [7]) | MIC [8] | fold change (FC) (Clostridioides difficile [9]) | MIC (Clostridioides difficile [10]) | fold change (FC) (Clostridioides difficile [11]) | fold change (FC) (Clostridioides difficile [12]) | fold change (FC) (Clostridioides difficile [13]) | fold change (FC) (Clostridioides difficile [14]) | Activity (Clostridioides difficile [15]) | fold change (FC) (Clostridioides difficile [16]) | fold change (FC) (Clostridioides difficile [17])
1 | CC1(C)S[C@@H]2[C@H](NC(=O)[C@H](N)c3ccccc3)C(=O)N2[C@H]1C(=O)O [AMPICILLIN] | 2 µg/mL (≈ 5.72 µM) | 4 µg/mL (≈ 11.4 µM) | 2 µg/mL (≈ 5.72 µM) | 8 µg/mL (≈ 22.9 µM) | 4 µg/mL (≈ 11.4 µM) |  |  |  |  |  |  |  |  |  |  |  | 
2 | CCC[C@@H]1C[C@@H](C(=O)N[C@@H]([C@H]2O[C@H](SC)[C@H](O)[C@@H](O)[C@H]2O)[C@H](C)Cl)N(C)C1 [CLINDAMYCIN] | 1 µg/mL (≈ 2.35 µM) | 4 µg/mL (≈ 9.41 µM) | 4 µg/mL (≈ 9.41 µM) | 128 µg/mL (≈ 301 µM) | 128 µg/mL (≈ 301 µM) |  |  |  |  |  |  |  |  |  |  |  | 
3 | CC1COc2c(N3CCN(C)CC3)c(F)cc3c(=O)c(C(=O)O)cn1c23 (configuration not stated) [OFLOXACIN] | 32 µg/mL (≈ 88.6 µM) | 256 µg/mL (≈ 708 µM) | 8 µg/mL (≈ 22.1 µM) | 8 µg/mL (≈ 22.1 µM) | 256 µg/mL (≈ 708 µM) | 130% | 32.8 | 128 µg/mL (≈ 354 µM) | 67.4 | 256 µg/mL (≈ 708 µM) | 22 | 2.1 | 3.2 | 4 | 25% | 3.9 | 4.8
